Entries after “also recorded” stand apart in the source; their conditions may differ. Positions of bridges follow the written chain, without caps; N, C: chain ends. No end group written: not given here.
Test system: PKA-II (phospho-RIIα/β) in rat DRG neurons
Assay: High-content imaging of PKA-II activity (pRII) in DRG sensory neurons
Assay type: cell-based
Settings: for PKA-II activation: 5 and 30 min, 0.005 to 0.8 µg/µL; for pRII response by neuron size: xibalbins 0.8 µg/µL; for increase in phospho-PKA-II intensity: 5 min
Description: To gauge sensory neuron activity in response to various activating stimuli, including electrical activity, phosphorylation state detection of protein kinase A type II (PKA-II) and MAP kinase Erk1/2 can act as surrogate measurements. Consequently, we tested for increased phosphorylation states in a concentration-dependent manner following exposure to xibalbins. Dissociated DRG neurons were cultured overnight and then exposed to increasing concentrations of the corresponding xibalbins for 5 min and 30 min, respectively. As a positive control, forskolin (Fsk) was also used to induce cAMP synthesis. The activity of PKA-II was monitored by antibodies directed against the phosphorylation site of the inhibitory regulatory subunits RIIα/β, which is exclusively accessible when the catalytic kinase domain is released during kinase activation. For measuring Erk1/2 activity, phospho-sites on Erk1/2 (T202/Y204) were monitored through immunofluorescence, as these sites are phosphorylated during activation. Cellular images were captured using HCI microscopy (Fig. 8A), and the average intensity of each phospho-antibody was quantified (Fig. 8B).
Fig. 8 A Representative images of rat DRG neurons stimulated with PBS (Ctrl) and xib1b (0.8 µg/µL). Cells were stained for UCHL1, pRII, pERK1/2, and Hoechst followed by fixation and staining with standard immunocytochemistry protocols. Green-encircled neurons indicate automatically selected objects. Scale bar: 100 µm. B Mean intensities of UCHL1, pRII, and pERK1/2. The same UCHL1 intensities were observed among tested groups. Forskolin (Fsk), an activator of adenylyl cyclase, was used as a positive control. Fsk at 6 µM concentration induced an increase in pRII and pERK1/2 intensities at 5 and 30 min. Number of analyzed cells per replica: 750 ± 200. Eight independent replicas. C–F Concentration responses of xibalbin toxins (0.005 to 0.8 µg/µL) and mean intensities of pRII and pERK1/2 at 5 min and 30 min. G–H Size versus pRII and pErk1/2 intensities of cells treated with 0.8 µg/µL of xib1 and xib13. Small-sized cells were responding to xibalbins. Statistical significance was assessed using one-way ANOVA with Dunnett’s post hoc test. Data represent mean ± S.E.M (standard error of the mean), n = 4, see “Methods” for details and Additional File 6: Table S2 for individual data values
Male Sprague Dawley rats (250–400 g, 8–16 weeks old) were obtained from Envigo. Rats were kept in 12 h of light/darkness cycles. All experiments were performed in accordance with the German animal welfare law with permission of the District Government for Nature and Environment, NRW (84–02.05.20.13.045, 4.18.003). Rats were scarified by slow inhalation of CO2 which was followed by decapitation. DRGs were extracted from rats, deheated, pooled, and incubated in Neurobasal A/B27 medium (Invitrogen, #12349–015) supplemented with B-27 (Invitrogen #17504), L-glutamine 1:400, L-glutamate 1:270.3, and penicillin/streptomycin 1:100 containing 0.2 U/mL collagenase P (collagenase P, Roche, #1213857) and incubated for 1 h at 37 °C, 5% CO2. DRGs were dissociated with pasteur pipettes and axon stumps were separated by BSA (Sigma-Aldrich, # A2153-100G) gradient centrifugation (14% BSA, 120 g, 8 min). Cells were resuspended in NBA medium, plated in 96-well imaging plate (Greiner BioOne Sensoplate, Black, #655896) precoated with poly-L-ornithine hydrochloride (0.1 mg/ml Sigma, #P2533)/laminin (5 µg/ml Invitrogen, #23017–015), and incubated overnight at 37 °C, 5% CO2.
DRGs were stimulated after overnight incubation. Compounds were prepared as tenfold concentrated stock solutions, diluted in PBS (PAA, cat# H15-002), in v-bottom plates; 50 µL media from culture wells were mixed with the […] stock solutions, and 50 µL added back to the respective wells. Stimulation was performed with automated multichannel pipette and cells were kept in heated block during the stimulation. […]

## RLFCIRHHKYCGHRPKRCCSGLFCRCNTFGTNCRCQSKGALGKLI (disulfide 4-19, 11-24, 18-35, 26-33) [xib1]
  PKA-II activation: increase PKA-II and Erk1/2 sensitization signaling; also recorded: increased PKA-II and pErk1/2 activity
  pRII response by neuron size: increased phosphorylation signals in both small-sized and large-sized sensory neurons

## KRSCIRRFGRCDHRPNDCCYNSSCRCNLWGSNCRCQRMGLFQKWGK (disulfide 4-19, 11-24, 18-35, 26-33) [xib13]
  PKA-II activation: increase PKA-II and Erk1/2 sensitization signaling; also recorded: increased PKA-II and pErk1/2 activity
  pRII response by neuron size: increased phosphorylation signals in both small-sized and large-sized sensory neurons
0.4 µg/µL (74 µM), q = 3.29
  increase in phospho-PKA-II intensity: up to 1.21 fold
0.8 µg/µL (148 µM), q = 4.17
  increase in phospho-PKA-II intensity: up to 1.21 fold
30 min
  change in phospho-PKA-II intensity: No change
